Structures are written as SMILES.

Holding throughout (format): in vivo
For assay [1], the system named is soybean (Glycine max var. Winchester). The experiment in a line: Preemergence herbicidal activity, soybean. Particulars: Glycine max, pre-emergence, Rate of Application 0.3 Kg/Ha, examined after 12-17 days, read-out: PREEMERGENCE HERBICIDAL ACTIVITY (% CONTROL) SOY.
For assay [2], the system named is wheat (Triticum aestivum var. Lew). Nature of the assay: Preemergence herbicidal activity, wheat. The settings on record: Triticum aestivum, pre-emergence, Rate of Application 0.3 Kg/Ha, examined after 12-17 days, read-out: PREEMERGENCE HERBICIDAL ACTIVITY (% CONTROL) WHT.
Assay [3] relates to morningglory (Ipomea lacunosa or Ipomea hederacea). The experiment in a line: Preemergence herbicidal activity, morningglory. Particulars: Ipomoea, pre-emergence, Rate of Application 0.3 Kg/Ha, examined after 12-17 days, read-out: PREEMERGENCE HERBICIDAL ACTIVITY (% CONTROL) IPOSS.
The subject of assay [4] is common chickweed (Stellaria media). Nature of the assay: Preemergence herbicidal activity, chickweed. Particulars: Stellaria media, pre-emergence, Rate of Application 0.3 Kg/Ha, examined after 12-17 days, read-out: PREEMERGENCE HERBICIDAL ACTIVITY (% CONTROL) STEME.
Assay [5] deals with Johnsongrass (Sorghum halepense). The experiment in a line: Preemergence herbicidal activity, johnsongrass. The settings on record: Sorghum halepense, pre-emergence, Rate of Application 0.3 Kg/Ha, examined after 12-17 days, read-out: PREEMERGENCE HERBICIDAL ACTIVITY (% CONTROL) SORHA.
Assay [6] has as its system soybean (Glycine max var. Winchester). The experiment in a line: Postemergence herbicidal activity, soybean. The settings on record: Glycine max, post-emergence, rate of application 0.3 Kg/Ha, rated after 12-17 days, read-out: Postemergence herbicidal activity (% control) SOY.
In assay [7] the test system is wheat (Triticum aestivum var. Lew). The experiment in a line: Postemergence herbicidal activity, wheat. Particulars: Triticum aestivum, post-emergence, rate of application 0.3 Kg/Ha, rated after 12-17 days, read-out: Postemergence herbicidal activity (% control) WHT.
Assay [8] concerns field corn (Zea mays var. Pioneer 3732). Nature of the assay: Postemergence herbicidal activity, corn. Particulars: Zea mays, post-emergence, rate of application 0.3 Kg/Ha, rated after 12-17 days, read-out: Postemergence herbicidal activity (% control) CRN.
The test system of assay [9] is morningglory (Ipomea lacunosa or Ipomea hederacea). The experiment in a line: Postemergence herbicidal activity, morningglory. Particulars: Ipomoea, post-emergence, rate of application 0.3 Kg/Ha, rated after 12-17 days, read-out: Postemergence herbicidal activity (% control) IPOSS.
For assay [10], the system named is common chickweed (Stellaria media). Nature of the assay: Postemergence herbicidal activity, chickweed. The settings on record: Stellaria media, post-emergence, rate of application 0.3 Kg/Ha, rated after 12-17 days, read-out: Postemergence herbicidal activity (% control) STEME.
The test system of assay [11] is common cocklebur (Xanthium strumarium L.). Nature of the assay: Postemergence herbicidal activity, cocklebur. Particulars: Xanthium strumarium, post-emergence, rate of application 0.3 Kg/Ha, rated after 12-17 days, read-out: Postemergence herbicidal activity (% control) XANPE.
For assay [12], the system named is blackgrass (Aloepecurus myosuroides). Nature of the assay: Postemergence herbicidal activity, blackgrass. The settings on record: Alopecurus myosuroides, post-emergence, rate of application 0.3 Kg/Ha, rated after 12-17 days, read-out: Postemergence herbicidal activity (% control) ALOMY.
The subject of assay [13] is green foxtail (Setaria viridis). Nature of the assay: Postemergence herbicidal activity, green foxtail. Particulars: Setaria viridis, post-emergence, rate of application 0.3 Kg/Ha, rated after 12-17 days, read-out: Postemergence herbicidal activity (% control) SETVI.
Assay [14] deals with Johnsongrass (Sorghum halepense). The experiment in a line: Postemergence herbicidal activity, johnsongrass. The settings on record: Sorghum halepense, post-emergence, rate of application 0.3 Kg/Ha, rated after 12-17 days, read-out: Postemergence herbicidal activity (% control) SORHA.

As for `CC(C)c1nc2c(-n3c(=O)cc(C(F)(F)F)n(C)c3=O)c(F)cc(Cl)c2o1` [Compound 28, 1-METHYL-6-TRIFLUOROMETHYL-3-[7-CHLORO-5-FLUORO-2-(1-METHYLETHYL)BENZOXAZOL4-YL]-2,4(1H,3H)-PYRIMIDINEDIONE], the inhibition at 300 g/ha in assay [1], in assay [2], in assay [3], in assay [4], in assay [5] and in assay [6] was 100% each time. The inhibition at 300 g/ha in assay [7] is 80%; in assay [8], 80%; in [9], 100%; in assay [10], 100%; in assay [11], 90%; in [12] it was 100%. Also, the results for the inhibition at 300 g/ha in assay [13] and in assay [14] were 100% and 95%, respectively.

Turning to `Cn1c(C(F)(F)F)cc(=O)n(-c2c(F)cc(Cl)c3[nH]c(C(F)(F)F)cc23)c1=O` [Compound 500, 3-(7-CHLORO-5-FLUORO-2-TRIFLUOROMETHYLINDOL-4-YL)-1-METHYL-6-TRIFLUOROMETHYL-2,4(1H,3H)-PYRIMIDINEDIONE], the inhibition at 300 g/ha turned out to be 95% in assay [1]; 75% in assay [2]; 100% in assay [3]; 100% in assay [4]; 100% in assay [5]; 95% in assay [6]. In addition, the inhibition at 300 g/ha was found to be 65% in assay [7]; 95% in assay [8]; 100% in [9]; 90% in assay [10]; 100% in assay [11]; 80% in [12]. Moreover, the inhibition at 300 g/ha in assay [13] and in assay [14] was 100% in each case.

In the case of `CCc1nc2c(-n3c(=O)cc(C(F)(F)F)n(C)c3=O)c(F)cc(Cl)c2[nH]1` [Compound 367, 3-(4-CHLORO-2-ETHYL-6-FLUOROBENZIMIDAZOL-7-YL)-1-METHYL-6-TRIFLUOROMETHYL-2,4(1H,3H)-PYRIMIDINEDIONE], the inhibition at 300 g/ha in [1] came out at 100%; in assay [2], 95%; in [3], 100%; in assay [4], 100%; in assay [5], 100%; in [6] it was 100%. Moreover, the inhibition at 300 g/ha in assay [7], in [8], in assay [9], in [10], in assay [11] and in assay [12] was 100% in each case. Besides, the inhibition at 300 g/ha in assay [13] and in assay [14] was 100% in each case.

The record behind these values is patent publication US6352958B1, “Cycloimido-substituted benzofused heterocyclic herbicides” (FMC Corporation, priority 1997, dated 2002).
